These results are taken from patent US20070190628A1, “Yeast food composition for fuel ethanol production” (priority 2006, published 2007).

What all share (assay type): cell-based, Saccharomyces cerevisiae
Test [1] concerns active dry yeast “z”. The test can be described thus: Scaled batch fermentation (4 L) of normal gravity corn mash: fermentation time and ethanol production. The note with it: 4 L batch. The protocol:
The fermentation rate in each nutrient-amended corn mash was determined by following the disappearance of dissolved solids by analysis of each sample collected for determination of yeast biomass production, with a digital density meter analyzer (model DMA-45, Anton Paar KG, Graz, Austria) maintained at 20° C. The amounts of ethanol produced during fermentation of each nutrient-amended corn mash were determined by measuring the amount of NADH+H^+ produced after ethanol was converted to acetaldehyde by alcohol dehydrogenase (ADH; Sigma Chemical Co.). An aliquot of each sample was collected for determination of yeast biomass production and diluted to 1:500. […] The absorbance of each tube was then measured at 340 nm after 15 min of incubation using water as the blank. To determine the amount of ethanol produced, a standard curve (ethanol concentration versus absorbance) was prepared using a standard 10% (w/v) ethanol preparation diluted to 1:500 and then diluted further to produce range of ethanol concentrations from 0 to 20 μg in the assay above. The linear equation (y=mx+b) obtained from the plot was used to calculate the amount of ethanol in the test solutions, where y was the absorbance and x was the amount (μg) of ethanol. […] Fermentation rates and ethanol production were determined by repeated sampling and sample processing at specific time intervals as described in Example 1.

For test [2], the system named is active dry yeast “z”. The test can be described thus: Fermentation of very high gravity corn mash with nutrient supplements (Example 4). As to the method:
(§1) The effects of the optimized defined urea plus salts-based nutrient supplement, i.e., defined yeast food, developed in Example 3 for corn mash fermentations, were assessed by comparisons of fermentation rates and ethanol production in normal gravity corn mashes and very high gravity corn mashes that were (a) supplemented with 16 mM urea only, or (b) yeast extract, or (c) supplemented with 16 mM urea plus the defined yeast food from Example 3 which in this set of studies, contained 1.6 g/L (NH4)2HPO4, 0.32 g/L (NH4)2SO4, 0.049 g/L MgSO4.7H2O, and 0.273 mg/L ZnSO4.7H2O.
(§2) Normal density corn mashes were prepared as described in Example 1 and were determined to contain about 18-20 g dissolved solids per 100 mL mash as determined by density meter analysis. […] The mash thus prepared contained 30-32 g of dissolved solids/100 mL as determined by density meter analysis. […]
(§3) Each study was commenced by removing fermentors containing either normal gravity corn mash or very high gravity corn mash from 4° C. storage, connecting them to 30° C. water bath circulators and continually mixing the corn mash contents therein until the temperature of each mash was 30° C. […] Fermentation performance in all treatments was assessed by repeated sampling and analyses of the mashes during the fermentation periods as described in Example 1.

The test system of test [3] is active dry yeast “z”. Put plainly: Fermentation of normal gravity corn mash with nutrient supplements (Example 4). As to the method: as §1, §2, §3
A further test deals with active dry yeast “y”. The test can be described thus: Fermentation performance of commercial active dry yeasts in normal gravity corn mash. The note with it: strain “y”. As to the method: The effects of the defined urea plus salts-based yeast food on fermentation performance of seven commercial active dry yeasts currently used by the fuel alcohol industry (Bellisimi et al., 2005, Am. Soc. Brew. Chem. J. Vol. 63, pp. 107-112) and designated herein as strains “b”, “d”, “e”, “w”, “x”, “y”, and “z”, were assessed in normal gravity corn mash prepared as described in Example 1. The commercial active dry yeasts were assessed with the following corn mash supplanted as follows: (a) 8 mM urea (control), or (b) 1% yeast extract, or (c) 8 mM urea supplemented with the defined urea plus salts yeast food of the present invention. The fermentation methods were followed as outlined in Example 4. Fermentation rates were determined by repeated sampling and sample processing at specific time intervals as described in Example 1.

`NC(N)=O` [urea]: in the test on active dry yeast “z” [1], the maximum ethanol production is on record as 11 % v/v and the “time within which fermentation was completed” value is not above 48 h. The “time after which fermentation became “stuck”” value in the test on active dry yeast “z” [2] is 72 h. In addition, the “fermentation period required to complete fermentation (disappearance of dissolved solids)” value with active dry yeast “z” [3] was 48 h. In addition, the Fermentation rate in the test with active dry yeast “y” (normal gravity corn mash) is 0.83 ± 0.01 g/100 mL/hr. Moreover, the Fermentation time in the test on active dry yeast “y” (complete disappearance of 20 g of dissolved solids/100 mL) worked out at 48 h.
